Reference: patent US20070203066A1, “Compositions and methods for inhibiting cellular proliferation” (priority 2005, published 2007)
Read-outs that look alike come from different tables or passages of the source. Non-standard residues stand in square brackets, D forms with d. Primed or numbered codes have the meaning given here. No end group written: not given here. Ida = iminodiacetic acid linker, its two carboxyls bind the Lys side-chain amines of two peptides, giving a homodimer; Ida(3) = iminodiacetic acid linker, Lys side-chain amines bound to its two carboxyl groups; Ida(4) = iminodiacetic acid linker (dimerization linker bound to lysine side chain); Ahx = NCCCCCC(=O)O

System: HUVECs
Assay type: cell-based
Method: HUVECs were routinely cultured to near confluency in EGM media (Clontech, Mountain View, California). The cells were trypsinized and plated in a 96-well plate at 5,000 cells per well per 100 μl EBM supplemented with 2% FCS and antibiotics. The cells were allowed to adhere to the plate for at least 12 hours. Then, bFGF at 10 ng/ml or VEGF at 5 ng/ml, and various concentrations of peptide, were added to the wells. The cells were cultured for 48 hours at 37 ° C. in a 5% CO2 atmosphere. Cell proliferation was determined using a bromo-deoxyuridine (BrdU) incorporation method as described by the manufacturer. Inhibition of cell proliferation was assessed by BrdU incorporation.

[1] = HUVEC proliferation, bFGF at 10 ng/ml or VEGF at 5 ng/ml, 48 hours, BrdU incorporation, read-out: IC50 on HUVECs

Compound | IC50 [1] [µM] | IC50 (48 h) [µM]
RKRKKQRVKIAYEEIFVQNM [compound 21] | > 30 | 
286 (Ac-RRRRAQHVHIYFK-NH2; not fully specified (residue 13); also: homodimer via Ida linker on Lys13 side chain) [compound 286] | < 10 | 
511 (Ac-ARRRRFRVAIYFK; not fully specified (C-terminus); also: homodimer via Ida linker at Lys13 side chain) [compound 511] | 10 to 30 | 
492 (Ac-ARRRNQSVAIKF; not fully specified (residue 11); also: homodimer: Lys11 side chain bound to Ida linker (Boc on Ida N)) [compound 492] | 10 to 30 | 
390 (Ac-ARRRRQAVMIYFK; not fully specified (residue 13, C-terminus); also: homodimer of residues 1-13 via Ida linker at Lys13 side chain) [compound 390] | < 10 | 
KTKRKRKKQRVKIAYEE [compound 18] | 10 to 30 | 
230 (XRHRRQRVRIIF; Xaa = Acylated Histidine; Dimeric peptide wherein the C terminus of Phe in position 12 of one peptide chain is covalently bound to one of the amino groups of a Lysine linker and Phe of the remaining peptide chain is covalently bound to the other amino group of the Lysine linker.) [compound 230] | < 10 | 
CC[C@H](C)[C@H](NC(=O)[C@H](C)NC(=O)[C@@H](NC(=O)[C@H](CCCNC(=N)N)NC(=O)[C@H](CCC(N)=O)NC(=O)[C@H](CCCNC(=N)N)NC(=O)[C@H](CCCNC(=N)N)NC(=O)[C@H](CCCNC(=N)N)NC(=O)[C@H](CCCNC(=N)N)NC(=O)[C@H](C)NC(C)=O)C(C)C)C(=O)N[C@@H](Cc1ccc(O)cc1)C(=O)N[C@@H](CCC(=O)O)C(=O)N[C@@H](CCCCNC(=O)CN(CC(=O)NCCCC[C@H](NC(=O)[C@H](CCC(=O)O)NC(=O)[C@H](Cc1ccc(O)cc1)NC(=O)[C@@H](NC(=O)[C@H](C)NC(=O)[C@@H](NC(=O)[C@H](CCCNC(=N)N)NC(=O)[C@H](CCC(N)=O)NC(=O)[C@H](CCCNC(=N)N)NC(=O)[C@H](CCCNC(=N)N)NC(=O)[C@H](CCCNC(=N)N)NC(=O)[C@H](CCCNC(=N)N)NC(=O)[C@H](C)NC(C)=O)C(C)C)[C@@H](C)CC)C(N)=O)C(=O)CCNC(=O)OC(C)(C)C)C(N)=O [Peptide 346] |  | > 30
KRKKQRVKIAYEEIF [compound 68] | > 30 | 
401 (Ac-ERRRRQAVAIYFK(Ida(3))-NH2; also: homodimer via Ida linker on Lys13 side chain, Ida amine Boc) [compound 401] | < 10 | 
250 (Ac-RRRRRQAVAIHFK; not fully specified (C-terminus); also: homodimer: side chain of Lys13 bound to an Ida linker) [compound 250] | < 10 | 
KTKRKRAKQRVKIIFVQNM [compound 117] | < 10 | 
384 (Ac-ARRRRQGVAIYFK-NH2; not fully specified (residue 13); also: homodimer via Ida linker on Lys13 side chain, Ida amine Boc) [compound 384] | < 10 | 
RKKQRVKIAYEEIF [compound 69] | > 30 | 
261 (Ac-ARR[dR]RQRVAIIFK-NH2; not fully specified (residue 13); also: homodimer via Ida linker on Lys13 side chains) [compound 261] | < 10 | 
209 (Ac-RRRRAQAVRIIF; also: dimer: Phe C-termini joined via Lys linker) [compound 209] | < 10 | 
KTKRKRKKQRVKIAFVQNM [compound 110] | 10 to 30 | 
436 (Ac-RRRRLQAVAIYFK(Ida(4)); not fully specified (C-terminus); also: homodimer via Ida linker at K13) [compound 436] | < 10 | 

Compound | IC50 [1] [µM] | IC50 (48 h) [µM]
408 (Ac-PRRRRQAVAIYFK; not fully specified (residue 13, C-terminus); also: homodimer via Ida linker on Lys side chains, linker at 13 via Ida, other end not in the chain) [compound 408] | < 10 | 
RKRKKQQRVKIAYEEIFV [compound 76] | > 30 | 
283 (Ac-RRRRAQAVHIYFK-NH2; not fully specified (residue 13); also: homodimer: Lys13 side chain bound to Ida linker) [compound 283] | < 10 | 
434 (Ac-RRRRFQAVAIYFK(Ida(4)); not fully specified (C-terminus); also: homodimer via Ida linker at K13) [compound 434] | < 10 | 
388 (Ac-ARRRRQAVFIYFK-NH2; not fully specified (residue 13); also: homodimer via Ida linker on Lys13 side chain, Ida amine Boc) [compound 388] | < 10 | 
281 (Ac-RRRRHQAVAIYFK-NH2; not fully specified (residue 13); also: homodimer via Ida linker on Lys13 side chain) [compound 281] | < 10 | 
311 (Ac-RRRRRQAVRITITFK) [compound 311] | < 10 | 
227 (Ac-ARRRRQRVAIWFK; also: homodimer via Ida linker on side chain of Lys13) [compound 227] | < 10 | 
224 (Ac-ARRRRQRVAIHFK; also: homodimer via Ida linker on side chain of Lys13) [compound 224] | < 10 | 
309 (Ac-RRRRRQAK(Ida)RIIFV; also: homodimer via Ida linker on Lys8 side chain) [compound 309] | < 10 | 
239 (Ac-RHRRRQRVHIIF; also: dimer via C-terminal Phe to Lys linker) [compound 239] | < 10 | 
280 (Ac-RRRRAQAVAIYFK-NH2; not fully specified (residue 13); also: homodimer via Ida linker on Lys13 side chain) [compound 280] | < 10 | 
417 (Ac-RRRRRQAVAIKFV; not fully specified (residue 11); also: homodimer via Ida linker on Lys side chains, linker at 11 via Ida, other end not in the chain) [compound 417] | < 10 | 
255 (Ac-ARRRRQRVA[dI]IFK-NH2; not fully specified (residue 13); also: homodimer via Ida linker on Lys13 side chains) [compound 255] | < 10 | 
194 (Ac-ARRRAQRVRIIF; also: dimer: C-terminal Phe bound to an amino group of a Lys linker, 2 chains per Lys) [compound 194] | < 10 | 
128 (KTKRKRKKQRVKI[Ahx][Ahx]IF; also: dimer: C-terminus of Phe17 of each chain bound to one amino group of a Lysine linker) [compound 128] | < 10 | 
415 (Ac-ARRRRQAVRIKFV; not fully specified (residue 11, bridges); also: homodimer of residues 1-13 via Ida linker on K11 side chain) [compound 415] | < 10 | 
